In US8507756B2, “Plant protection” (Plant Bioscience Limited, priority 2007, dated 2013):

What was measured:
Type in all cases: in vivo
[1] = system: Tetranychus urticae (two-spotted spider mite); experiment: Spider mite challenge of untreated tomato plants grown adjacent to plants from JA-treated seeds; conditions: tomato cv Carousel; neighbours of 1.5 or 3.0 mM JA seed treatment
Protocol: The effect of Tetranychus urticae on plants was measured by means of counting the number of live and dead mites on each plant and the number of mite eggs present using a dissecting microscope. Seeds of a UK commercial F1 hybrid tomato variety (cv. Carousel) were treated with either 1.5 or 3.0 mM jasmonic acid (JA) and 42.8 mM ethanol in deionised H2O for a period of 24 hours at 4° C. in the dark. Those seeds were then removed from solution and washed in deionised H2O only to remove the JA coating the outside of the seed. Those seed were then germinated in a commercial manner using rockwool blocks and were grown on under glasshouse conditions appropriate to this crop. Plants were challenged with two-spotted spider mite (Tetranychus urticae) 7 weeks after treatment a common crop pest, acting here as a “model herbivore”. […] The effect was observed on comparing the controls located at least 10 meters away. (FIG. 6). The illustrated data are means of 10 replicates+/−standard error of the mean. […] The effect was again observed on comparing the controls located at least 10 meters away. (FIG. 7). The illustrated data are means of 10 replicates+/−standard error of the mean.

Myzus persicae = experiment: JA seed treatment, sweet pepper plants challenged with aphids; conditions: sweet pepper cv Biscayne, seed treatment 1.5 mM JA
Protocol: Tomato, pepper, maize and wheat seeds were treated with 3 mM JA or 1.5 mM JA solutions or with 3 mM methyl jasmonate (MeJA) or with deionised water containing 42.8 mM ethanol (control) by full submersion of up to 40 seeds in a Petri dish of solution wrapped in foil for a period of 24 hours at 4° C. in a fridge. A temperature of 4° C. was used both to prevent degradation of the jasmonic acid solutions and to prevent germination of the seeds. Pepper seeds were sown in peat-based compost and grown in unheated glass houses under ambient conditions in the summer. Tomato plants were then challenged with Tetranychus urticae (two-spotted spider mite) which were allowed to feed for 9 days, Manduca sexta (tobacco hornworm) caterpillars which were allowed to feed for 4 days or Myzus persicae (aphid), which were allowed to feed for 10 or 12 days. In each case these organisms were restricted to the plant on which they had originally been placed. Pepper plants were challenged with Myzus persicae (aphid), which were allowed to feed for 2 weeks. […] The effect of Myzus persicae on plants was determined by counting the aphid population on each plant under a dissecting microscope at ×10 magnification. […] Aphids were allowed to feed on the plants for two weeks and the growth of the aphid population over this period was then measured. […]

Spodoptera exempta = experiment: JA seed treatment, wheat plants challenged with Spodoptera exempta caterpillars; conditions: wheat cv. Einstein; seed treatment 1.5 mM JA; challenged 7 weeks after seed treatment; 3 days feeding; p<0.01
Protocol: Tomato, pepper, maize and wheat seeds were treated with 3 mM JA or 1.5 mM JA solutions or with 3 mM methyl jasmonate (MeJA) or with deionised water containing 42.8 mM ethanol (control) by full submersion of up to 40 seeds in a Petri dish of solution wrapped in foil for a period of 24 hours at 4° C. in a fridge. A temperature of 4° C. was used both to prevent degradation of the jasmonic acid solutions and to prevent germination of the seeds.
Wheat and maize seeds were sown in peat-based compost and grown in unheated glass houses with supplementary lighting. (600 W SON-T lamps, for 16 hours per day) in the autumn.
Tomato plants were then challenged with Tetranychus urticae (two-spotted spider mite) which were allowed to feed for 9 days, Manduca sexta (tobacco hornworm) caterpillars which were allowed to feed for 4 days or Myzus persicae (aphid), which were allowed to feed for 10 or 12 days. […]
The effect of Manduca sexta or Spodoptera exempta on plants was determined by measurement of the leaf area eaten, measured using a leaf area meter.
Seeds of the commercial wheat variety (cv. Einstein) were treated with 1.5 mM jasmonic acid (JA), and plants grown in the glasshouse (as described under Example 1). […] Caterpillars were allowed to feed on the plants for 3 days and the area of grazed leaves was then measured. […]

cucumber = experiment: Long term growth and yield study after JA seed treatment, cucumber; conditions: seed treatment 1.5 or 3.0 mM JA, weekly harvests
From the text: Data are means of 8 replicate plants+/−standard error of the mean, and the line is a fitted growth response.

CC/C=C\C[C@H]1C(=O)CC[C@@H]1CC(=O)O [JA, jasmonic acid]
Population of T. urticae on untreated plants grown adjacent to plants from JA-treated seeds, vs controls at least 10 meters away [1]: significant reduction
Reproductive rate of the mite (egg production) on untreated plants grown adjacent to plants from JA-treated seeds, vs controls at least 10 meters away [1]: significant reduction
Rate of aphid population growth compared with controls (Myzus persicae; challenged 8 weeks after seed treatment, 2 weeks feeding): significant (p<0.001) reduction
Aphid population growth rate from fitted growth curves (Myzus persicae; control 0.19+/-0.011): 0.11+/−0.016
Leaf area consumed by caterpillars, lower than controls (Spodoptera exempta): 60%
Vegetative or reproductive growth, or commercial yield (cucumber): no significant effect
